In brackets after ≈: the same amount, converted by molar mass. Read-outs that look alike come from different tables or passages of the source.
Legend:
[1] = biological target: T1, S. aureus RNase P (RnpA + rnpB) (Staphylococcus aureus, UniProt P0A0H5); test: RnpA-dependent RNase P in vitro ptRNA^Tyr processing assay; format: biochemical; conditions: in vitro ptRNA^Tyr processing
T1 construct: hexahistidine (His6) (N); made in house; host or cells: E. coli BL21 (DE3), plasmid pEXP5-nt
T1 sequence (P0A0H5 1-117): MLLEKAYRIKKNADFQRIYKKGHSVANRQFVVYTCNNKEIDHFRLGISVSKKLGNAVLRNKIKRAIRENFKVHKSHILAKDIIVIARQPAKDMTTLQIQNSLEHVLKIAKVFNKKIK
Method: S. aureus RNase P activity assays were performed according to conditions described previously. Briefly, ptRNA^Tyr and rnpB RNA species were first denatured by heating to 95 °C for 5 min then slow cooled to room temperature. RNase P was reconstituted by mixing an equal molar ratio of rnpB and RnpA for 15 min at 37 °C. Precursor tRNA processing inhibition reactions were performed by mixing 1.25 pmol of reconstituted RNase P (RnpA + rnpB) with an equal volume of 2× low salt buffer (50 mM Tris-HCl pH 8.0, 5 mM MgCl2) in the presence of DMSO (negative control) or the indicated compound (≤500 µM) and incubated for 5 min at 37 °C. 5 pmol ptRNA^Tyr was added and the mixture was incubated at 37 °C 15 min. Reactions were stopped by adding 2× RNA loading dye and heating at 65 °C for 10 min. Each sample was electrophoresed in a 7 M urea/8% polyacrylamide gel then stained with ethidium bromide. The Biorad EZ Gel Doc imaging system was used to visualize the RNA and relative abundance of the mature tRNA^Tyr band (% processing) in the negative control or in samples containing the indicated compounds and analyzed using Biorad Image Lab densitometry software. The inhibitory activity of the indicated compounds were calculated as a % inhibition using the following equation: […].
To assess IC50, % RNase P processing inhibition was plotted against compound concentration and a linear best fit equation was generated to calculate the IC50.

S. aureus RnpA = biological target: T2, S. aureus RnpA (Staphylococcus aureus, UniProt P0A0H5); test: RnpA-mediated in vitro spa mRNA degradation assay; format: biochemical
T2 construct: hexahistidine (His6) (N); made in house; host or cells: E. coli BL21 (DE3), plasmid pEXP5-nt
T2 sequence (P0A0H5 1-117): T1 sequence (P0A0H5 1-117)
Method: RnpA-mediated RNA degradation assays were performed as previously described. Briefly, 1 pmol of spa mRNA was incubated with 5 pmol RnpA at 37 °C for 30 min in reaction buffer (50 mM Tris-HCl pH 8.0, 2 mM NaCl, 2 mM MgCl2) in the absence or presence of the indicated compound (≤500 µM). The inhibitory effects of the test compounds were calculated using Biorad ImageLab densitometry software to measure the signal intensity of the spa band in the negative control (spa alone), positive control (RnpA + spa + DMSO), and experimental samples (RnpA + spa + test compound) separated on a 1.2% formaldehyde-agarose gel. Background signal from the positive control sample sometimes resulted due to incomplete degradation of transcripts. Thus, the signal intensity of the positive control was taken into account when calculating the percent inhibition. The raw signals from the positive (+RnpA) and negative (-RnpA) controls were converted into percentage, by normalizing the positive control (+RnpA) signal to 0% RnpA inhibition and the negative control (-RnpA) to 100% RnpA inhibition. Similarly, the raw signals from the test compounds were reported as percent RnpA inhibition using the following equation: [(experimental−positive control)/(negative control−positive control)] × 100. […] To assess IC50, % RnpA degradation inhibition was plotted against compound concentration; a linear best fit equation was generated and utilized to calculate the IC50.

[2] = system: norA mRNA in S. aureus UAMS-1 cells; test: Cellular norA mRNA turnover (qRT-PCR after rifampin arrest); format: cell-based, Staphylococcus aureus; conditions: 0.5× MIC for 30 min, 5 min post-transcriptional arrest; for norA mRNA degradation: mock 99%
Method: S. aureus mRNA half-life determinations were performed as previously described. […] Rifampin (Sigma-Aldrich) was added to the culture at a final concentration of 200 μg·mL^−1 to inhibit de novo transcript synthesis. Half of the culture was immediately removed and combined with an equal volume of ice cold acetone:ethanol (1:1 v/v). The remaining culture was returned to the shaking 37 °C incubator for an additional 5 min and then subsequently combined with an equal volume of ice cold acetone:ethanol (1:1 v/v) and stored at −80 °C until processing, as described below.
For total bacterial RNA isolation, cell suspensions were thawed on ice, centrifuged at 3000 rpm for 10 min at 4 °C, the resulting cell pellets were resuspended in ice-cold TE buffer (10 mM Tris-HCl, pH 8.0, 1 mM EDTA), and transferred into a FastPrep bead beater tube containing 0.1 mm silica spheres (MP Biomedicals; Santa Ana, CA, USA). Mixtures were homogenized at 5 m·s^−1 for 20 s, rested on ice for 5 min, and then homogenized again at 4.5 m·s^−1 in a FastPrep-24 instrument. Cellular debris were collected by centrifugation at 13,000 rpm for 15 min at 4 °C, whereas bacterial RNA was isolated from the supernatant using Qiagen RNeasy Mini Kits and miRNeasy Mini Kits were used to isolate total bacterial RNA, following the manufacturer’s instructions. RNA quantity and quality were measured using a NanoDrop 2000 spectrophotometer (ThermoFisher Scientific). For qRT-PCR, 1 μg of total bacterial RNA was treated with 3 units of DNase I (Ambion; Carlsbad, CA, USA) for 1 h at 37 °C to remove any DNA contaminants. RNA cleanup was performed using the Qiagen RNeasy Mini Kit. Subsequently, the BioRad iScript cDNA Synthesis Kit (Hercules, CA, USA) was used to convert 200 ng of RNA into cDNA, which was amplified using the BioRad iQ SYBR Green Supermix per the manufacturer’s instructions and fluorescence was read on the Biorad CFX 96 Connect machine. Transcript levels were compared to the internal control 16S rRNA (ΔΔCt method), and plotted as a fold change compared to control. The following primer pairs were used in this study for qRT-PCR: norA forward—[…] and norA reverse-[…] CTAAG; -15 ptRNA^Tyr forward-[…] and tRNA^Tyr reverse-TGGTG […]; 16S rRNA forward-[…] and 16S rRNA reverse-[…].

HepG2 cells = test: MTT human cell cytotoxicity testing; format: cell-based; conditions: SAR figures; 4× MIC exposure for 24 h
Method: Human HepG2 hepatocytes were seeded in individual wells of a 96-well cell-culture treated microtiter plate at a concentration of 1 × 10^5 cells per well and incubated in Dulbecco’s Modified Eagle Medium (DMEM) supplemented with 10% fetal bovine serum at 37 °C with 5% carbon dioxide overnight. Cells were then treated with DMSO (negative control) or the indicated agent for 24 h. MTT Cell Proliferation Assay Kits were used to assess viability according to the manufacturer’s recommendations (American Type Culture Collection; Manassas, VA, USA).

S. aureus UAMS-1 [3] = test: Minimum inhibitory concentration (MIC) testing; format: cell-based, Staphylococcus aureus
Method: Minimum inhibitory concentration (MIC) testing was performed using to Clinical & Laboratory Standards Institute (CLSI) guidelines. Accordingly, individual wells of a 96-well microtiter plate were inoculated with 10^4 colony forming units (CFU) of S. aureus UAMS-1 containing two-fold increasing concentrations (0 to 256 μg·mL^−1) of the indicated antibiotic or putative RnpA inhibitor compound, and incubated at 37 °C for 16 h in MHB. The MIC was defined as the lowest concentration of compound in which there was no visible bacterial growth in the well.

[4] = system: ptRNA^Tyr levels in S. aureus UAMS-1 cells; test: Cellular ptRNA^Tyr accumulation (qRT-PCR); format: cell-based, Staphylococcus aureus; conditions: 1× MIC; 30 min or 1 h
Method: ptRNA^Tyr cellular pools were measured, as previously described. […] The culture was immediately removed, combined with an equal volume of ice cold acetone:ethanol (1:1 v/v) and stored at −80 °C until processing, as described below.
For total bacterial RNA isolation, cell suspensions were thawed on ice, centrifuged at 3000 rpm for 10 min at 4 °C, the resulting cell pellets were resuspended in ice-cold TE buffer (10 mM Tris-HCl, pH 8.0, 1 mM EDTA), and transferred into a FastPrep bead beater tube containing 0.1 mm silica spheres (MP Biomedicals; Santa Ana, CA, USA). Mixtures were homogenized at 5 m·s^−1 for 20 s, rested on ice for 5 min, and then homogenized again at 4.5 m·s^−1 in a FastPrep-24 instrument. Cellular debris were collected by centrifugation at 13,000 rpm for 15 min at 4 °C, whereas bacterial RNA was isolated from the supernatant using Qiagen RNeasy Mini Kits and miRNeasy Mini Kits were used to isolate total bacterial RNA, following the manufacturer’s instructions. RNA quantity and quality were measured using a NanoDrop 2000 spectrophotometer (ThermoFisher Scientific). […] Subsequently, the BioRad iScript cDNA Synthesis Kit (Hercules, CA, USA) was used to convert 200 ng of RNA into cDNA, which was amplified using the BioRad iQ SYBR Green Supermix per the manufacturer’s instructions and fluorescence was read on the Biorad CFX 96 Connect machine. […]

[5] = system: S. aureus RN4220 pML100::rnpA-KD; test: Cellular RnpA depletion hypersusceptibility growth curve; format: cell-based, Staphylococcus aureus; conditions: […] MIC JC2 or 0.5× MIC RNPA2000
Method: 100 μL of each culture was transferred to a 96 well flat bottom plate in duplicate and growth monitored by OD600 reading every 30 min over 8 h at 37 °C. Hypersusceptibility growth curves were averaged from two biological replicates in technical duplicate.

S. aureus UAMS-1 [6] = test: Galleria mellonella model of S. aureus infection; format: in vivo; conditions: 10^4 CFU UAMS-1, single dose 100 mg·kg^−1 1 h post-infection, 16 h; DMSO 60%
Method: (§1) An overnight culture of S. aureus strain UAMS-1 was used to inoculate (1:100 dilution) 25 mL of fresh MH medium and growth at 37 °C on a rotary shaker at 225 rpm to exponential phase (~1 × 10^8 CFU mL^−1). Cultures were pelleted by centrifugation, washed with phosphate buffered saline (PBS), and re-suspended at ~1 × 10^7 CFU·mL^−1 in fresh PBS. G. mellonella larvae weighing 150–250 mg were inoculated with 5 µL of S. aureus into the last left proleg using a 10 µL Hamilton syringe. About 1 h after inoculation, one group of worms was treated with 2 µL DMSO as infected negative control; one group was treated with 2 µL JC2 compound at 100 mg/kg dose; another group was treated with 2 µL vancomycin at 100 mg/kg dose as standard-of-care comparison. Treatments were administered in the same manner as infection, except that each injection was in the next left proleg moving towards the head of the worm. […] In addition to the mock or compound treatment of infected larvae, a group of non-infected worm injected with DMSO or corresponding compounds were used to monitor the impact of physical trauma as well as observe toxicity associated with compound treatment.

Galleria mellonella = Galleria mellonella single tolerated dose (uninfected worms); format: in vivo; conditions: single dose 100 mg·kg^−1, 16 h
Method: as §1

[7] = Staphylococcus aureus, UAMS1, 16 h, Table S1, mupirocin synergy screening initial hits, read-out: MIC
[8] = Staphylococcus aureus, UAMS1, SAR figures, S. aureus UAMS-1, read-out: MIC

Compound | IC50 ([1]; read-out: Processing IC50) | IC50 (S. aureus RnpA; read-out: Degradation IC50) | norA mRNA degradation [2] | MTT = % HepG2 cell survival (HepG2 cells) | MIC (S. aureus UAMS-1 [3]; [7]) | MIC (S. aureus UAMS-1 [3]; [8]) | further results
CC1CCN(C(=O)Nc2cc(Cl)cc(Cl)c2)CC1 [JC1] | 210 µM | 110 µM | did not reduce cellular norA mRNA degradation | 63% | 1 µg/mL | 1 µg/mL (≈ 3.48 µM) | MIC (S. aureus UAMS-1 [3]; S. aureus UAMS-1, 16 h in MHB, listed as 9044791): 1 µg/mL (≈ 3.48 µM)
CCC1CCCCN1C(=O)Nc1cc(Cl)cc(Cl)c1 (stereo not shown) [JC3] | 175 µM | 500 µM | did not reduce cellular norA mRNA degradation | 57.9% | 1 µg/mL | 1 µg/mL (≈ 3.32 µM) | effect on RnpA mRNA degradation activity (in words) (S. aureus RnpA): no appreciable effect; MIC (S. aureus UAMS-1 [3]; S. aureus UAMS-1, 16 h in MHB, listed as 9044688): 1 µg/mL (≈ 3.32 µM)
CCC1CCCCN1C(=O)Nc1cccc(Cl)c1 (stereo not shown) [JC3b] | ≤ 500 µM | ≤ 500 µM | did not reduce cellular norA mRNA degradation | 82.8% |  | 32 µg/mL (≈ 120 µM) | IC50 ([1]; SAR figures, read-out: pIC50 = processing IC50 (converted)): 500 µM; IC50 (S. aureus RnpA; SAR figures, read-out: dIC50 = degradation IC50): 350 µM
CC(C)c1ccc(OCC(=O)NNC(=S)NC(=O)c2ccco2)cc1 [RNPA2000, reference compound] |  |  |  |  |  |  | reduction of cellular norA mRNA degradation [2]: approximately 54%; cellular accumulation of precursor tRNA^Tyr in comparison to mock treated cells [4]: 2.31 fold; growth of RnpA-depleted cells (RnpA-KD) versus vector cells [5]: hypersusceptibility; MIC (S. aureus UAMS-1 [3]; S. aureus UAMS-1, 16 h in MHB): 16 µg/mL (≈ 44.3 µM)
CN[C@H](CC(C)C)C(=O)N[C@H]1C(=O)N[C@@H](CC(N)=O)C(=O)N[C@H]2C(=O)N[C@H]3C(=O)N[C@H](C(=O)N[C@H](C(=O)O)c4cc(O)cc(O)c4-c4cc3ccc4O)[C@H](O)c3ccc(c(Cl)c3)Oc3cc2cc(c3O[C@@H]2O[C@H](CO)[C@@H](O)[C@H](O)[C@H]2O[C@H]2C[C@](C)(N)[C@H](O)[C@H](C)O2)Oc2ccc(cc2Cl)[C@H]1O [vancomycin, reference compound] |  |  |  |  |  |  | mortality rate of S. aureus infected worms (S. aureus UAMS-1 [6]): 40%; mortality rate of uninfected worms (Galleria mellonella): 10%

From PMC6627331, “Identification of Small Molecule Inhibitors of Staphylococcus aureus RnpA” (Antibiotics, 2019)
